Square brackets hold non-standard residues; d marks the D form. Peptide text beside a SMILES is read from it. * marks the point of attachment. ξ: configuration not given here. Cbz = O=C(OCc1ccccc1)*; ξL = CC(C)CC(N)C(=O)O
How the values were obtained:
[1] = tested on: Notch target gene expression (Hes1); test: Notch target gene expression in 5TGM1 myeloma cells in vitro; type: cell-based; settings: for inhibition of Notch target gene expression: compounds pre-incubated at low pH to mimic acidic conditions in resorption sites, myeloma cells; for Notch target gene expression (Hes1-Hey1): in vitro, 5TGM1 myeloma cells, not pre-incubated
From the text: FIG. 1A. Graphs illustrating the effect on Notch target gene expression. In vitro, the control unconjugated GSI decreased Notch target gene expression (Hes1-Hey1) but BT-GSI-XII had no effect.
FIG. 1B. A graph illustrating the effect on Notch target gene expression.
(§1) Referring now to FIG. 1A, the control unconjugated GSI decreased Notch target gene expression (Hes1) in 5TGM1 myeloma cells, but BT-GSI-XII had no effect in vitro. […] (FIG. 1E).

Hes1/5 expression = test: Ex vivo whole bone organ cultures, Hes1/5 expression; type: cell-based; settings: compounds non-pre-incubated
From the text: FIG. 1C. A schematic drawing illustrating an exemplary ex vivo system.
as §1

[2] = tested on: normal 4-month old female mice; test: In vivo administration of BT-GSI-XII to normal mice: tolerability, skin, gut toxicity biomarker
[3] = tested on: normal 4-month old female mice; test: In vivo administration of BT-GSI-XII to normal mice: BMD, microCT, serum bone markers, osteoclasts/osteoblasts, bone cytokine and osteoblast marker mRNA
From the text: Daily injections of PTH (iPTH) are thought to cause bone anabolism by increasing osteoblast number and function. However, iPTH can also increase bone resorption, which can limit bone gain. iPTH activates Notch signaling in osteocytes; and bone-targeted Notch inhibition using a γ-secretase inhibitor (GSI) conjugated to an alendronate-modified bone-targeting molecule (BT-GSI) decreases Notch signaling in bone, and reduces CTX (−40%) while preserving bone formation, leading to increases in BMD (4-7%) and cancellous bone volume (BV/TV; 30%).

Notch target genes = test: Notch target gene mRNA in bone, brain and gut of BT-GSI treated mice; type: in vivo; settings: compared to vehicle-treated mice
From the text: FIG. 2A. Graphs illustrating the effect on Notch target genes.
FIG. 2B. Graphs illustrating the effect on Notch target genes.
as §1

4-mo-old mice = test: Co-administration of BT-GSI with daily PTH injections (iPTH) in mice: bone mass, resorption and formation; type: in vivo
Procedure: (§2) To investigate whether a combination of iPTH (anabolic) and BT-GSI (anti-catabolic) increases bone mass to a higher extent than either agent alone, BT-GSI (5 mg/kg, 3×/wk) or saline was co-administered with iPTH (100 ng/g/day) or vehicle for 2 wks to 4-mo-old mice (n=10/group).
(§3) No changes were found in M-Csf expression. Additionally, unconjugated GSI reduced Rankl-induced osteoclast differentiation in vitro with an EC50˜0.1 μM (FIG. 12D). Further, the bone-targeting molecule alone required a dose 10 times higher than GSI to decreased osteoclastogenesis. Referring now to FIG. 13, co-administration of BT-GSI decreased iPTH-induced elevated serum P1NP (e.g., about 30% decrease); however, the co-administration of BT-GSI maintained the iPTH-induced elevated bone formation rate (20%) and osteoblast number/surface (20%) in cancellous bone (FIG. 13B-C). Further, mice receiving iPTH alone or combined with BT-GSI induced elevated mRNA levels of Alp1, Runx2, Bglap, and Wnt target genes, and reduced mRNA level of Sost in bone (FIG. 13 D-E).

[4] = tested on: Notch target genes Hes1/5/7 and Hey1/L; test: Co-administration of BT-GSI with iPTH in mice: Notch target gene expression in bone, brain, gut; type: in vivo; settings: 2 wks
Procedure: as §2

[5] = tested on: Rankl-induced osteoclast differentiation; test: Rankl-induced osteoclast differentiation in vitro; type: cell-based; settings: read-out: EC50, reduction of Rankl-induced osteoclast differentiation
Procedure: as §3

[6] = 5 μg/g, 3×wk, 2 weeks, normal 4-month old female mice
[7] = serum, 5 μg/g, 3×wk, 2 weeks, mice
[8] = BT-GSI 5 mg/kg 3×/wk co-administered with iPTH, 2 wks
[9] = BT-GSI co-administered with iPTH
[10] = BT-GSI co-administered with iPTH, cancellous bone
[11] = single agent (iPTH 100 ng/g/day or BT-GSI 5 mg/kg 3×/wk)

## CC[C@H](C)[C@H](NC(=O)OCc1ccccc1)C(=O)NC(/C=N/N(C)CCCC(=O)NC(P(=O)(O)O)P(=O)(O)O)CC(C)C (stereo partly drawn) [BT-GSI-XII]
[1]
  inhibition of Notch target gene expression: equal inhibition
  Notch target gene expression (Hes1-Hey1): no effect
Hes1/5 expression
  Hes1/5 expression: similarly decreased
[2]; [6]
  skin issues: no skin issues were observed
  tolerability: well tolerated
[2]; treated mice vs vehicle, gut
  Apsidin expression in the gut, a biomarker of gastrointestinal toxicity: did not increase
[3]; 5 μg/g, 3×wk, 2 weeks, mice
  higher femoral BMD compared to control mice: 4%
  higher spinal BMD compared to control mice: 7%
  higher total BMD compared to control mice: 3%
[3]; microCT analysis
  increased cancellous bone volume (BV/TV) compared to vehicle-treated mice: 25%
  increased trabecular thickness compared to vehicle-treated mice: 10%
[3]; microCT analysis, listed as BT-GSI
  increased cancellous bone volume (BV/TV) compared to vehicle-treated mice: 30%
[3]; [7]
  circulating levels of the bone formation marker P1NP: did not affect
  decrease of serum CTX, a marker of bone resorption: 40%
[3]; summary statement, sites not named
  increases in BMD: 4-7%
[3]; treated mice
  bone formation and mineral apposition rates: remained unchanged
  decrease in the bone surface covered by osteoclasts compared to control mice: 50%
  number of osteoblasts: remained unchanged
[3]; treated mice vs vehicle
  Opg mRNA expression in bone: increased
  Rankl/Opg ratio in bone: decreasing
[3]; treated mice vs vehicle, listed as BT-GSI
  Opg mRNA expression in bone: upregulated
[3]; treated mice, bone
  expression of osteoblast markers, including Wnt target genes and the osteocyte-derived Sost/Sclerostin: remained unchanged
[3]; treated mice, listed as BT-GSI
  bone formation and mineral apposition rates: preserving
Notch target genes; brain, gut
  Notch target gene mRNA expression in brain or gut: not in brain or gut
Notch target genes; whole bone preparations
  Notch target gene (Hey2, Hes5, Hes7, HeyL) mRNA expression in bone: decreases
4-mo-old mice; [8]
  increase in femoral BMD: 17%
  increase in spinal BMD: 7%
  increase in total BMD: 10%
4-mo-old mice; [9]
  additional increase in cancellous BV/TV (L4 and distal femur) compared to the iPTH-induced increase: 25%
  additional increase in trabecular thickness compared to the iPTH-induced increase: 25%
  decrease of iPTH-induced elevated serum P1NP: about 30%
  effect on iPTH-induced increase in cortical bone area: did not alter
  iPTH-induced elevated Rankl/Opg expression ratio in bone: remained unchanged
  serum CTX level: less than those exhibited in control mice
4-mo-old mice; [10]
  iPTH-induced elevated bone formation rate: maintained
  iPTH-induced elevated osteoblast number/surface: maintained
  osteoclast number/surface level: less than those exhibited in control mice
4-mo-old mice; iPTH combined with BT-GSI
  mRNA level of Sost in bone: reduced
  mRNA levels of Alp1, Runx2, Bglap, and Wnt target genes in bone: elevated
[4]; BT-GSI 5 mg/kg 3×/wk co-administered with iPTH 100 ng/g/day
  iPTH-induced elevated expression of Hes1/5/7 and Hey1/L in bone: decreased the iPTH-induced elevated expression of Hes1/5/7 and Hey1/L to a level comparable to the control mice
[4]; [11]
  expression of Notch target genes in brain or gut: remained unchanged
[4]; the combination of iPTH and BT-GSI
  expression of Notch target genes in brain or gut: remained unchanged

## CC[C@H](C)[C@H](NC(=O)OCc1ccccc1)C(=O)N[C@H](C=O)CC(C)C [GSI-XII, reference compound] (Cbz-Ile-Leu-aldehyde)
[1]
  Notch target gene expression (Hes1-Hey1): decreased
[5]
  EC50: ~100 nM

## CC[C@H](C)[C@H](NC(=O)OCc1ccccc1)C(=O)NC(C=O)CC(C)C (stereo partly drawn) [GSI-XII, reference compound] (Cbz-Ile-[ξL]-aldehyde)
[1]
  inhibition of Notch target gene expression: equal inhibition
Hes1/5 expression
  Hes1/5 expression: similarly decreased

B1: iPTH: daily injections of PTH (parathyroid hormone) (protein, UniProt P01270 32-115, looked up)
Parathyroid hormone: SVSEIQLMHNLGKHLNSMERVEWLRKKLQDVHNFVALGAPLAPRDAGSQRPRKKEDNVLVESHEKSLGEADKADVNVLTKAKSQ
modifications: Parathyroid hormone
4-mo-old mice; iPTH 100 ng/g/day alone, 2 wks
  increase in femoral BMD: 13%
  increase in total BMD: 7%
  spinal BMD change: 0%
4-mo-old mice; iPTH alone
  iPTH-induced elevated Rankl/Opg expression ratio in bone: 1.5 fold
  iPTH-induced elevated serum CTX: 30%
  iPTH-induced increase in cortical bone area: 8%
  mRNA level of Sost in bone: reduced
  mRNA levels of Alp1, Runx2, Bglap, and Wnt target genes in bone: elevated
  serum P1NP: elevated
4-mo-old mice; iPTH alone, cancellous bone
  iPTH-induced elevated bone formation rate: 20%
  iPTH-induced elevated osteoblast number/surface: 20%
  iPTH-induced elevated osteoclast number/surface: 25%
[4]; iPTH 100 ng/g/day alone
  expression of the Notch target genes Hes1/5/7 and Hey1/L in bone: increased
[4]; [11]
  expression of Notch target genes in brain or gut: remained unchanged
